Measurements: PubChem BioAssay AID2060354 (Molecular Pharmacology Branch, DTP, NCI, 2025)
pIC50: −log10 of the molar value. Values joined by “and” are separate entries in the source; they are usually repeats but may differ in a detail not shown here. Identical values can stand only once.

System: 519858-162-T-J1-PDC spheroid growth inhibition
Test: Anticancer human tumor 519858-162-T-J1-PDC patient-derived colon adenocarcinoma cell line growth inhibition [TAK]
Conditions: spheroids with HUVEC and MSC; for viability, T/C: stronger effect = lower value
Outline: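 Drug combinations, each paired with TAK-243 or ipatasertib, were tested on multi-cell spheroids of 60% malignant cells, 25% HUVEC and 15% hMSC. Top concentrations were at or near the clinical Cmax (10 microM if undetermined), decreasing by half-log; viability is given as % test/control.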
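Note: spheroids exposed to drugs for 7 days.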

Q: For `COC1CC2CCC(C)C(O)(O2)C(=O)C(=O)N2CCCCC2C(=O)OC(C(C)CC2CCC(OCCO)C(OC)C2)CC(=O)C(C)C=C(C)C(O)C(OC)C(=O)C(C)CC(C)C=CC=CC=C1C` (stereo not drawn), which viability, T/C (compound 0.000316 µM) is on record?
A: The viability, T/C was 98.9% and 86.7%.

Q: And the viability, T/C (compound 0.00316 µM)?
A: The viability, T/C was 88.3% and 111%.

Q: What about the viability, T/C (compound 0.01 µM) of the same molecule?
A: The viability, T/C was 76.2% and 91.2%.

Q: And the viability, T/C (compound 0.0316 µM)?
A: Its viability, T/C is 89.6% and 75.7%.

Q: And the viability, T/C (compound 0.1 µM)?
A: The viability, T/C was 71.5% and 82.5%.

Q: And the pIC50 (curve of compound)?
A: The pIC50 was < 7.00.

Q: How did the pIC50 (curve of first compound, second compound 0.3 µM) turn out when `CC(C)CC(NC(=O)C(Cc1ccccc1)NC(=O)c1cnccn1)B(O)O` (stereo not drawn) + CC(C)NCC(C(=O)N1CCN(c2ncnc3c2C(C)CC3O)CC1)c1ccc(Cl)cc1 was run?
A: Its pIC50 is < 8.00.

Q: And the pIC50 (curve of first compound, second compound 0.949 µM)?
A: Its pIC50 is < 8.00.

Q: What about the pIC50 (curve of first compound, second compound 3 µM) of the same molecule?
A: The pIC50 was < 8.00.

Q: And the pIC50 (curve of first compound, second compound 9.49 µM)?
A: Its pIC50 is < 8.00.

Q: And the pIC50 (curve of first compound, second compound 30 µM)?
A: Its pIC50 is < 8.00.

Q: What about the viability, T/C (second compound 0.3 µM, first compound 31.6 pM) of the same molecule?
A: The viability, T/C was 84.6%.

Q: And the viability, T/C (second compound 0.3 µM, first compound 0.0001 µM)?
A: Its viability, T/C is 80.4%.

Q: And the viability, T/C (second compound 0.3 µM, first compound 0.000316 µM)?
A: Its viability, T/C is 75.7%.

Q: What about the viability, T/C (second compound 0.3 µM, first compound 0.001 µM) of the same molecule?
A: The viability, T/C was 92.6%.

Q: What about the viability, T/C (second compound 0.3 µM, first compound 0.00316 µM) of the same molecule?
A: The viability, T/C was 83.2%.

Q: What about the viability, T/C (second compound 0.3 µM, first compound 0.01 µM) of the same molecule?
A: The viability, T/C was 63.8%.

Q: And the viability, T/C (second compound 0.949 µM, first compound 31.6 pM)?
A: Its viability, T/C is 83.7%.

Q: What about the viability, T/C (second compound 0.949 µM, first compound 0.0001 µM) of the same molecule?
A: The viability, T/C was 97.6%.

Q: And the viability, T/C (second compound 0.949 µM, first compound 0.000316 µM)?
A: The viability, T/C was 86.4%.

Q: What about the viability, T/C (second compound 0.949 µM, first compound 0.001 µM) of the same molecule?
A: The viability, T/C was 88.9%.

Q: And the viability, T/C (second compound 0.949 µM, first compound 0.00316 µM)?
A: Its viability, T/C is 95.6%.

Q: What about the viability, T/C (second compound 0.949 µM, first compound 0.01 µM) of the same molecule?
A: The viability, T/C was 69.7%.

Q: What about the viability, T/C (second compound 3 µM, first compound 31.6 pM) of the same molecule?
A: Its viability, T/C is 84.4%.

Q: What about the viability, T/C (second compound 3 µM, first compound 0.0001 µM) of the same molecule?
A: Its viability, T/C is 84.7%.

Q: What about the viability, T/C (second compound 3 µM, first compound 0.000316 µM) of the same molecule?
A: Its viability, T/C is 67.9%.

Q: And the viability, T/C (second compound 3 µM, first compound 0.001 µM)?
A: Its viability, T/C is 84.4%.

Q: What about the viability, T/C (second compound 3 µM, first compound 0.00316 µM) of the same molecule?
A: Its viability, T/C is 78.7%.

Q: And the viability, T/C (second compound 3 µM, first compound 0.01 µM)?
A: The viability, T/C was 77.1%.

Q: What about the viability, T/C (second compound 9.49 µM, first compound 31.6 pM) of the same molecule?
A: The viability, T/C was 100%.

Q: And the viability, T/C (second compound 9.49 µM, first compound 0.0001 µM)?
A: Its viability, T/C is 88.2%.

Q: And the viability, T/C (second compound 9.49 µM, first compound 0.000316 µM)?
A: Its viability, T/C is 110%.

Q: And the viability, T/C (second compound 9.49 µM, first compound 0.001 µM)?
A: The viability, T/C was 83.2%.

Q: And the viability, T/C (second compound 9.49 µM, first compound 0.00316 µM)?
A: The viability, T/C was 66.2%.

Q: What about the viability, T/C (second compound 9.49 µM, first compound 0.01 µM) of the same molecule?
A: Its viability, T/C is 82.8%.

Q: And the viability, T/C (second compound 30 µM, first compound 31.6 pM)?
A: Its viability, T/C is 85.2%.

Q: What about the viability, T/C (second compound 30 µM, first compound 0.0001 µM) of the same molecule?
A: The viability, T/C was 97.1%.

Q: What about the viability, T/C (second compound 30 µM, first compound 0.000316 µM) of the same molecule?
A: The viability, T/C was 96.7%.

Q: What about the viability, T/C (second compound 30 µM, first compound 0.001 µM) of the same molecule?
A: The viability, T/C was 88.4%.

Q: And the viability, T/C (second compound 30 µM, first compound 0.00316 µM)?
A: Its viability, T/C is 85.2%.

Q: What about the viability, T/C (second compound 30 µM, first compound 0.01 µM) of the same molecule?
A: The viability, T/C was 78%.

Q: What does the source list for `Cn1cnc2c(F)c(Nc3ccc(Br)cc3Cl)c(C(=O)NOCCO)cc21`?
A: viability, T/C (compound 0.00949 µM): 89.7% and 85.4%; viability, T/C (compound 0.03 µM): 76.2% and 71.8%; viability, T/C (compound 0.0949 µM): 45.6% and 51.8%; viability, T/C (compound 0.3 µM): 32.3% and 33.5%; viability, T/C (compound 0.949 µM): 20.3% and 21.6%; viability, T/C (compound 3 µM): 17.2% and 18.4%; pIC50 (curve of compound): 7.05 and 6.97
